These results are taken from patent publication US5358712A, “Radiopharmaceutical agents for the detection of Alzheimer's disease” (Regents of the University of Minnesota, priority 1993, dated 1994).

Data set [1] addresses T1, vesamicol receptor (Tetronarce californica, UniProt P81721).
T1 construct: no ATP or acetylcholine
T1 sequence (P81721 1-515): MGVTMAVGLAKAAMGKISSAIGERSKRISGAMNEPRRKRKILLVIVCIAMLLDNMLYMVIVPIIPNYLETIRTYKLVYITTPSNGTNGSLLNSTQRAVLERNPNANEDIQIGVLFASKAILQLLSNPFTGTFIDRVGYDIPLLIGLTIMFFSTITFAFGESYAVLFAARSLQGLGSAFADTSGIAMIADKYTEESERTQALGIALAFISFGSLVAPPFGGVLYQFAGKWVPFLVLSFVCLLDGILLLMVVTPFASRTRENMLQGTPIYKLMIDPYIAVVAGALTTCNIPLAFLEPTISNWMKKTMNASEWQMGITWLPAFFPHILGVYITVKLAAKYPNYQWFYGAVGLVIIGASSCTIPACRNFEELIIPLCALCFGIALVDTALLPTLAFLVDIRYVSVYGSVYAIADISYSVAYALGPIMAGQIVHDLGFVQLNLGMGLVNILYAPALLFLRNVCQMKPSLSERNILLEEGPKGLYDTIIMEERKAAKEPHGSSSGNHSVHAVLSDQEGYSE
Kind of data set: Binding affinities of aminoalcohols at the vesamicol receptor (purified cholinergic synaptic vesicles). Also on record: species or system Torpedo californica. The procedure:
The compounds were evaluated in a purified preparation of cholinergic synaptic vesicles isolated from the electric organ of Torpedo californica. A full description of this assay was described earlier. However, the present study was carried out in the absence of ATP and acetylcholine. […] Nonlinear regression analysis was carried out with MINSQ (MicroMath Scientific Software, Salt Lake City, Utah.). Protein content was determined by the method of Bradford, using a bovine serum albumin standard.
^a The compounds were tested as the corresponding hydrochlorides,
using highly purified synaptic vesicles obtained from the electric organ
of Torpedo Californica, following a procedure described earlier (8).

The test system of data set [2] is vesamicol receptor. To be noted: rodent brain; cited from earlier work.
In data set [3] the test system is vesamicol receptor. Nature of the data set: Blocking experiments: inhibition of radiotracer accumulation in the rat by coadministered compound. Conditions: rat. The data set is classed as in vivo, rat (male Wistar). The gist of the method:
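Male Wistar rats (n=3/group) got iv radiotracer, alone or coadministered with blocker (e.g. (+)/(−)-HBrPP·HCl 1.3 μmol/kg, vesamicol·HCl 1.1 μmol/kg, or 0.31–0.53 mg/kg in other series). Blood and tissues taken 60 min post-injection to assess radiotracer accumulation.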

Data set [4] deals with vesamicol receptor. Conditions: cited from earlier work.
Data set [5] concerns rodents and other laboratory animals. To be noted: cited from earlier work.
In data set [6] the test system is vesamicol receptor. Kind of data set: Ligand displacement studies in vivo. Also noted: species or system rat (male Wistar). To be noted: rat, vesamicol iv 30 minutes after radiotracer. The method, then: To determine if vesamicol could displace bound [^125 I]5 in vivo, a blocking dose of vesamicol was injected intravenously 30 minutes following the administration of (-)-[^125 I]5.
Two groups of male Wistar rats (n=3) were used in this study. Each animal initially received, while under anesthesia, an iv dose of (-)-5, (9.5 μCi) in 0.1 ml of 50% aqueous ethanol. After 30 min. the control group received an iv dose of 50% aqueous ethanol (0.1 ml) while the second group received an iv dose of (dl)-vesamicol hydrochloride (1.1 μmol/kg) in 0.1 ml of 50% aqueous ethanol. All animals were sacrificed, as described above, at one hour following radiotracer injection. Data was analyzed as described above.

Data set [7] relates to vesicular acetylcholine storage. To be noted: cited from earlier work; for vesamicol-like inhibitory activity (in words): Kaufman et al 1988, Rogers et al 1989.
For data set [8] the following is noted: rat.
Protocol: (§1) Four groups of male Wistar rats (with four animals per group) weighing 200-350 g were used in these experiments. Each animal received, while under ether anesthesia, an intravenous injection of the radiotracer (10-20 μCi) dissolved in 0.1 ml of 50% aqueous ethanol. At 5, 30, and 60 and 180 min. post-injection, blood was collected from the anesthetized animals by cardiac puncture, and the animal was immediately sacrificed by cardiectomy. The organs and tissues of interest were harvested, transferred to preweighed tubes and counted in a Beckman gamma counter. The tubes were subsequently reweighed to give the weight of the corresponding tissues. Preweighed tubes containing ^1 -ml samples of a 1:100 dilution of the injection dose were also counted and used as reference for calculating the tissue accumulation of radioactivity. The accumulation of radiotracer was expressed as a percentage of injected dose per gram of tissue.
Data set [9] in a line: Tissue distribution (biodistribution) of radioiodinated compound in the rat. Conditions: rat.
Protocol: as §1
The next data set has as its system monkey brain. Nature of the data set: Brain imaging study (SPECT). The data set is classed as in vivo. Conditions: cynomolgus monkey. The method, then:
These studies were conducted with a Picker 3-head PRISM camera equipped with a high-resolution fan beam collimator. A 5-Kg male cynomolgus monkey, anesthetized with halothane, received an intravenous dose of 12 mCi of (-)-4-[^123 I]HIPP ((-)-[^123 I]5) in 1 ml of 50% ethanol-isotonicsaline. Data acquisition which commenced simultaneously, in the "step and shoot" mode, was divided into one 5minute segment, six 10-minute segments and a final 20-minute segment. At 18 hours post-injection, data was acquired under similar conditions for both the head and the heart, over a 20 minute period. For cardiac imaging, the camera was equipped with a medium-energy-parallel-hole collimator. The data was subsequently processed to obtain both a time-activity curve and images in the transaxial and sagittal planes. To obtain an estimate of the fractional accumulation of (-)-4-^123 I]HIPP in the monkey brain, a phantom filled consecutively with varying concentrations of aqueous Na^125 I was counted with the gamma camera to generate a standard curve.

[10] abbreviates: iv, 60 min, + (dl)-vesamicol HCl 0.3 (Table 3) or 0.31 mg/kg, 60 min.
Setting [11] is: iv, 60 min, radiotracer only (control).

With `OC(CN1CCC(c2ccccc2)CC1)c1ccc(Br)cc1` (racemic) [Compound 15i, (dl)-1-(4-Bromophenyl)-2-(4-phenylpiperidinyl)ethanol], the “binding to the vesamicol receptor (in words)” value on vesamicol receptor [1] is listed as “equipotent with (dl)-vesamicol”.
For `O[C@@H]1CCCC[C@H]1N1CCC(c2ccccc2)CC1` (relative stereo) [[^3 H]vesamicol], in the data set with vesamicol receptor [2], the “cortical [^3 H]vesamicol binding after lesioning a known cholinergic pathway” value is listed as “significant decrease” and the “distribution relative to other markers of cholinergic innervation” value was “correlate well”.
`O[C@@H]1CCCC[C@H]1N1CCC(c2ccccc2)CC1` (relative stereo) [vesamicol, trans-2-(4-phenylpiperidino)cyclohexanol]: the “blocking of the accumulation of [^125 I]5 in vivo, relative potency” value in the data set with vesamicol receptor [3] (vesamicol 1.1 μmol/kg, (+)-7 and (-)-7 1.3 μmol/kg, coadministered) is recorded as “equipotent”. The “dissociation from the receptor” value in the data set with vesamicol receptor [4] is “dissociate too quickly”. Further, the “reversibility of binding to the vesamicol receptor” value in the data set with vesamicol receptor [4] was “binds reversibly”. Besides, the “respiratory paralysis and death” value in data set [5] is “induces respiratory paralysis and death”. For the same molecule, the “displacement of bound (-)-[^125 I]5 radioactivity from brain or heart” value is “fails to displace” with vesamicol receptor [6] and “can not readily displace” in the data set on vesamicol receptor [6] (listed as (dl)-vesamicol). Also, the “inhibition of ACh uptake into cholinergic synaptic vesicles and of quantal release” value in data set [7] is “inhibit both the uptake of ACh into cholinergic synaptic vesicles and quantal release”.
As for `OC(CN1CCC(c2ccccc2)CC1)c1ccc([125I])cc1` (single isomer, unassigned; (+)) [(+)-[^125 l]13] [1-(4-Iodophenyl)-2-(4-phenylpiperidinyl)ethanol], the “efflux from the brain” value in data set [8] is reported as “much slower”. Moreover, in the data set on vesamicol receptor [3] (setting [10]), the “Brain: Blood Ratio” value stood at 7.02, the “Heart: Blood Ratio” value is given as 2.48 and the radioactivity in blood is 0.03 % dose/g of tissue. In the data set with vesamicol receptor [3] (setting [11]), the “Brain: Blood Ratio” value is listed as 17.86 and the “Heart: Blood Ratio” value stood at 4.41. The “decrease of concentration in the brain” value in data set [9] (3 hours post-injection vs initial, listed as (+)[^123 I]13) stood at 35%. Also, in [9] (initial, listed as (+)-[^125 I]13), the “initial accumulation in the rat brain” value is given as 2.75 % of the injected dose. For the same molecule, in [9] (iv, 5 min), the “Brain: Blood Ratio” value came to 14.8 and the “Heart: Blood Ratio” value turned out to be 13.8. Moreover, in data set [9] (iv, 60 min), the “Brain: Blood Ratio” value turned out to be 41.7, the “Heart: Blood Ratio” value stood at 8.2 and the radioactivity in lung stood at 1.77 % dose/g. For the same molecule, in data set [9] (iv, 180 min), the “Brain: Blood Ratio” value worked out at 37.4, the “Heart: Blood Ratio” value came out at 5.7, the radioactivity in blood is 0.02 % dose/g and the radioactivity in brain came out at 0.93 % dose/g. In addition, in data set [9] (iv, 180 min), the radioactivity in heart stood at 0.14 % dose/g, the radioactivity in kidney worked out at 1.53 % dose/g, the radioactivity in liver was 1.97 % dose/g and the radioactivity in lung was determined as 0.62 % dose/g. In addition, in [9] (iv, 180 min), the radioactivity in muscle came out at 0.13 % dose/g and the radioactivity in spleen worked out at 0.77 % dose/g.
In general, Kd refers to the equilibrium constant for the complex coming apart. `OC(Cc1cccc(I)c1)CN1CCC(c2ccccc2)CC1` (single isomer, unassigned; (+)) [Compound 15j, (+)-2-Hydroxyl-3-(3-iodophenyl)-1-[1-(4-phenylpiperidinyl)]propane] yielded a Kd at vesamicol receptor [1] (synaptic vesicles from electric organ of Torpedo californica, tested as hydrochloride) of 73 ± 11 nM.
In the case of `OC(Cc1ccc([123I])cc1)CN1CCC(c2ccccc2)CC1` (single isomer, unassigned; (-)) [(-)-4-[^123 I]HIPP, 2-Hydroxy-3-(4-iodophenyl)-1-(4-phenylpiperidyl)propane], the “brain activity relative to surrounding tissues” value in the data set on monkey brain (11/2 and 18 hours post-injection) was “high levels of activity”. Also, in the data set with monkey brain (iv), the “t-1/2 in the monkey brain” value was 9 h. Besides, in the data set with monkey brain (iv, estimated), the “accumulation within the brain” value was ~3 % of the injected dose.
In the case of `OC(Cc1ccc(Br)cc1)CN1CCC(c2ccccc2)CC1` (single isomer, unassigned; (-)) [(-)-15a, 3-(4-Bromophenyl)-2-hydroxy-1-[1-(4-phenylpiperidinyl)]propane], the “binding to the vesamicol receptor (in words)” value at vesamicol receptor [1] is “essentially equipotent with vesamicol”.
Consider `OC1Cc2ccccc2CC1N1CCC(c2ccccc2)CC1` (stereo not drawn) [Compound 1], for which, in the data set on vesamicol receptor [4], the eudesmic ratio result is recorded as “not unity”. Also, in data set [7], the “vesamicol-like inhibitory activity (in words)” value was “potent”.
`Nc1cccc2c1CC(N1CCC(c3ccccc3)CC1)C(O)C2` (stereo not drawn) [Compound 2]: the “ligand potency at the vesamicol receptor (in words)” value with vesamicol receptor [4] (literature) is recorded as “potent ligands”. In data set [7], the “vesamicol-like inhibitory activity (in words)” value is recorded as “potent”.
